Results on 2 compounds are retold here after patent US12310372B1, “Water-based insect repellent composition” (priority 2022, dated 2025).

The structures appear in SMILES notation.

The test system of this assay is Culex quinquefasciatus. The assay can be described thus: K & D Module Repellency Test (Complete Protection Time on volunteer's arm). The class given is in vivo. To be noted: Table 2; for Avg Duration: active package only in water/isopropanol, 100% repellency threshold (CPT). The source says: Efficacy, Duration, and Percent Repellency: The primary method used to assess the efficacy and duration of an insect repellent is the “Arm-in-Cage Test”. The term “duration” as used herein refers to the time between (1) the application of the insect repellent composition and (2) when the subject first drops below the applicable minimum percent repellency threshold. For all of the testing methodologies used herein, the minimum threshold value for “percent repellency” at which the measurement for duration is cutoff is at least (≥) 90% repellency. For some testing methodologies used herein (such as the “Arm-in-Cage Test”), the minimum threshold value for “percent repellency” was 90% repellency. For other testing methodologies used herein (such as the “K & D Module Repellency Test”), the minimum threshold value for percent repellency was 100% repellency. When a duration is measured using a minimum threshold of 100% repellency, the duration may also be referred to as “Complete Protection Time” (CPT).
Another method that may be used to assess the insect repellent efficacy of an insect repellent composition is the “K & D Module Repellency Test.” The insect repellent efficacy is measured using a minimum repellency threshold of 100% repellency, which may also be referred to as the Complete Protection Time (CPT) of an insect repellent composition, which is the time period between the application of the insect repellent composition and the first insect landing.
In the K & D Module Repellency Test the test volunteer used a marker and a template, representing the base and the 3 cm.×4 cm. openings of the K & D module, to mark skin areas of his/her arm which were then treated with different insect repellent compositions at a skin dose of 0.0017 grams/cm^2 against the insect (in this case, Culex quinquefasciatus). The rectangular marks on the volunteer's arm represented where the six cells of the K & D module were positioned on the volunteer's arm. Each cell of the K & D module was filled with ten mated female mosquitoes (Culex quinquefasciatus), and the floor slide was removed from each cell to expose all mosquitoes to all skin treatments. The time between removing the floor slide of each cell and the first mosquito from the cell landing is recorded as the CPT.

Take `C=CCc1ccc(O)c(OC)c1` [CE17, eugenol]: the “Avg Duration” value worked out at 1.7 h. Moreover, for the setting “skin dose 0.0017 grams/cm^2”, the “Avg Duration” value amounted to 1.67 h. For the same compound, for the setting “active package only”, the “Duration (Min) (Time of confirmation land) Subject 1” value came out at 60 min, the “Duration (Min) (Time of confirmation land) Subject 2” value came to 120 min and the “Duration (Min) (Time of confirmation land) Subject 3” value amounted to 120 min. Under “active package only, Subject 4”, the “Duration (Min) (Time of confirmation land) Subject 4” value worked out at 100 min.

As to `CC(C)=CCC/C(C)=C/CO` [CE36, geraniol], the “Avg Duration” value came to 0.8 h. Further, the “Avg Duration” value (skin dose 0.0017 grams/cm^2) came to 0.833 h. For the setting “active package only”, the “Duration (Min) (Time of confirmation land) Subject 1” value was 30 min, the “Duration (Min) (Time of confirmation land) Subject 2” value is 60 min and the “Duration (Min) (Time of confirmation land) Subject 3” value stood at 60 min.
